Reference: patent publication US9062067B2, “Process for preparation of darunavir and darunavir ethanolate of fine particle size” (Lupin Limited, priority 2009, dated 2015)

Columns and labels:
[1] = Bulk and tapped density; type: physicochemical; settings: after jet mill micronization, Example 4
[2] = Particle size distribution (Malvern mastersizer); type: physicochemical; settings: after jet mill micronization, Example 4
From the text: The particle size of the darunavir ethanolate obtained by the process of present invention can be determined by any method known in the art such as laser diffraction, sieve analysis, microscope observation, sedimentation etc. Malvern mastersizer is an instrument employed for particle size determination in the present invention.

## CC(C)CN(C[C@@H](O)[C@H](Cc1ccccc1)NC(=O)O[C@H]1CO[C@H]2OCC[C@H]21)S(=O)(=O)c1ccc(N)cc1 [darunavir ethanolate, Darunavir ethanolate]
[1]
  Bulk density: 0.42 g/mL
  Tapped density: 0.72 g/mL
[2]
  Particle size distribution d0.1: 2 μm
  Particle size distribution d0.5: 18 μm
  Particle size distribution d0.9: 97 μm
